Results: US10125358B2, “Methods and compounds for increasing threonyl-tRNA synthetase activity” (UNIVERSITY OF VERMONT AND STATE AGRICULTURAL COLLEGE, priority 2012, dated 2018)
Entries after “also recorded” stand apart in the source; their conditions may differ.

Legend:
[1] = tested on: chorioallantoic membrane (CAM) of chicken embryos; test: Chick chorioallantoic membrane (CAM) assay; type: in vivo; conditions: purified protein applied daily to gelfoam sponge, 72 h
Experimental: Chick Chorioallantoic Membrane Assay—
Fertilized chicken eggs (Sunrise Farms, Catskill, N.Y.) day 1-2 post-laying were incubated in a humidified incubator at 37° C. for 72 h. Cleaned eggs were cracked and plated in a sterile 10 cm^2 tissue culture-treated dish and incubated at 37° C. for another 7 days. On developmental day 10, 1 mm^3 sterile gelatin sponge pieces (Surgifoam®; Johnson & Johnson Wound Management, Somerville, N.J.) were placed within the outer one-third of the membrane between large vessels. […] All compounds were applied in 10 μl to the CAM every 24 h for 72 h. Images were taken using a Leica MZ6 stereomicroscope every 24 h. Compounds were scored according to a modified version of Intensity Scoring as previously described (Ribatti, Nico et al. 2006). Briefly, each experimental condition was given a blinded score from 0-5 based on the change in the extent of vessel convergence and formation in proximity to the sponge from day 0 to day 3. Total score is averaged individual experimental condition scores from at least 15 replicates.
Fertilized chicken embryos were cultured ex-ova and, starting at developmental day 10, agents were applied daily to gelfoam sponges on the CAM. Images were recorded daily over 72 h and scored blindly according to a modified version Intensity Scoring as previously described (Ribatti, Nico et al. 2006). Additional details regarding methods are provided in the Methods and Materials section of Example 1.

[2] = tested on: HUVEC; test: Transwell migration assay; type: cell-based, human; conditions: 100 nM protein in migration compartment, 4 h
Experimental: Transwell Migration Assay—
Migration was assessed using transwell inserts (Svensson, Kucharzewska et al. 2011). […] Cultures were incubated for 4 h, fixed in 10% formalin, and stained with 10 μg/ml DAPI solution (Roche) following removal of cells from the top layer of the chamber with a cotton swab. Migrated cells were imaged using a 4× objective on the Olympus IX70 Inverted microscope (Olympus). DAPI-stained nuclei were counted using ImageJ software.

[3] = LARS steady state ATPase activity (32P-ATP to AMP); type: biochemical; conditions: 1 μM human LARS
Experimental: LARS steady state ATPase activity was determined using the same procedure as for TARS aminoacylation with the following modifications. […] ATP (PerkinElmer, Waltham, Mass.) was added. Reactions were incubated for 3 minutes at 37° C. and initiated with the addition of 1 μM human LARS. At various time points 5 μl aliquots were quenched in 45 μl of 500 mM sodium acetate and 0.1% sodium dodecyl sulfate. For each sample, 1 μl was spotted onto a CCM cellulose PEI F plates (EMD) and resolved via thin-layer chromatography in 0.75 M potassium phosphate buffer mobile phase. Radioactive signals were detected via phosphorimaging and AMP production overtime was quantified using Quantity One v 4.6.6 software (Bio-Rad, Hercules, Calif.).

## LARS: N-terminal HIS6-tagged human leucyl tRNA synthetase purified from E. coli
[1]
  CAM vessel formation / vascularity, effect of applied synthetase: no observable effect; also recorded: no effect on angiogenesis
[2]
  migration of endothelial cells: did not affect migration
[3]
  LARS enzyme activity (conversion of 32P-ATP to AMP): exhibits enzyme activity
